≈ marks a conversion by molar mass, not a printed value. Calls of active or inactive are those of the source. The rule behind the calls is not given here.
Legend:
[1] = Unbound fraction in mouse; format: ADME, organism-based; conditions: in vivo
[2] = Half life in rat at 10 mg/kg, ip; format: ADME, organism-based; conditions: in vivo
[3] = Tmax in rat at 10 mg/kg, ip; format: ADME, organism-based; conditions: in vivo
[4] = molecular target: Metabotropic glutamate receptor 2 (Homo sapiens, UniProt Q14416); assay: Antagonist activity at recombinant human mGlu2 receptor expressed in hamster AV12 cells assessed as inhibition of DCG-4-inhibited forskolin-stimulated cAMP formation up to 25 uM after 20 min by HTRF assay relative to control; format: functional, cell-based
[5] = molecular target: Metabotropic glutamate receptor 3 (Homo sapiens, UniProt Q14832); assay: Antagonist activity at recombinant human mGlu3 receptor expressed in hamster AV12 cells assessed as inhibition of DCG-4-inhibited forskolin-stimulated cAMP formation up to 25 uM after 20 mins by HTRF assay relative to control; format: functional, cell-based
[6] = molecular target: Metabotropic glutamate receptor 1 (Homo sapiens, UniProt Q13255); assay: Agonist activity at recombinant human mGlu1 receptor expressed in hamster AV12 cells co-expressing human EAAT1/Galpha1s assessed as increase in Ca2+ flux by Fluo-3-AM dye based FLIPR assay; format: functional, cell-based
[7] = molecular target: T1, Metabotropic glutamate receptor 7 (Homo sapiens, UniProt Q14831); assay: Antagonist activity at recombinant human mGlu7 receptor expressed in hamster AV12 cells co-expressing human EAAT1/Galpha1s assessed as inhibition of Ca2+ flux by Fluo-3-AM dye based FLIPR assay; format: functional, cell-based
[8] = molecular target: T1, Metabotropic glutamate receptor 7; assay: Agonist activity at recombinant human mGlu7 receptor expressed in hamster AV12 cells co-expressing human EAAT1/Galpha1s assessed as increase in Ca2+ flux by Fluo-3-AM dye based FLIPR assay; format: functional, cell-based
[9] = Aqueous solubility of compound at pH 7.4; format: physicochemical; conditions: aqueous medium
[10] = Drug metabolism in rat microsomes at 4 uM after 30 mins; format: ADME, Microsome; conditions: read-out: Drug metabolism
[11] = Drug metabolism in monkey microsomes at 4 uM after 30 mins; format: ADME, Macaca mulatta, Microsome; conditions: rhesus monkey, read-out: Drug metabolism
[12] = Drug metabolism in human microsomes at 4 uM after 30 mins; format: ADME, Microsome; conditions: read-out: Drug metabolism
CYP3A4 = CYP3A4 (Homo sapiens, UniProt P08684); assay: Inhibition of human CYP3A4 at 10 uM; format: ADME
CYP2D6 = CYP2D6 (Homo sapiens, UniProt P10635); assay: Inhibition of human CYP2D6 at 10 uM; format: ADME
[13] = AUC (0 to 24 hrs) in rat at 5 mg/kg, po; format: ADME, organism-based; design: time < 24 hr, dose 5 mg/kg, route oral; conditions: in vivo
[14] = Cmax in rat at 5 mg/kg, po; format: ADME, organism-based; design: dose 5 mg/kg, route oral; conditions: in vivo
[15] = Oral bioavailability in rat at 5 mg/kg; format: ADME, organism-based; conditions: in vivo
[16] = Plasma concentration in NIH Swiss Webster mouse at 3 mg/kg, ip at 30 mins; format: ADME, organism-based
[17] = Antidepressant activity in rat EEG model assessed as accumulated wake time at 3 mg/kg, ip measured over 7 hrs relative to control; format: functional, organism-based
[18] = Antidepressant activity in rat EEG model assessed as accumulated wake time at 10 mg/kg, ip measured over 7 hrs relative to control; format: functional, organism-based
[19] = Antidepressant activity in ip dosed rat EEG model assessed as accumulated wake time measured over 7 hrs relative to control; format: functional, organism-based
Rattus norvegicus = assay: Toxicity in rat assessed as NREM sleep at 3 to 10 mg/kg, ip; format: organism-based; conditions: in vivo

T1 sequence (Q14831 whole entry): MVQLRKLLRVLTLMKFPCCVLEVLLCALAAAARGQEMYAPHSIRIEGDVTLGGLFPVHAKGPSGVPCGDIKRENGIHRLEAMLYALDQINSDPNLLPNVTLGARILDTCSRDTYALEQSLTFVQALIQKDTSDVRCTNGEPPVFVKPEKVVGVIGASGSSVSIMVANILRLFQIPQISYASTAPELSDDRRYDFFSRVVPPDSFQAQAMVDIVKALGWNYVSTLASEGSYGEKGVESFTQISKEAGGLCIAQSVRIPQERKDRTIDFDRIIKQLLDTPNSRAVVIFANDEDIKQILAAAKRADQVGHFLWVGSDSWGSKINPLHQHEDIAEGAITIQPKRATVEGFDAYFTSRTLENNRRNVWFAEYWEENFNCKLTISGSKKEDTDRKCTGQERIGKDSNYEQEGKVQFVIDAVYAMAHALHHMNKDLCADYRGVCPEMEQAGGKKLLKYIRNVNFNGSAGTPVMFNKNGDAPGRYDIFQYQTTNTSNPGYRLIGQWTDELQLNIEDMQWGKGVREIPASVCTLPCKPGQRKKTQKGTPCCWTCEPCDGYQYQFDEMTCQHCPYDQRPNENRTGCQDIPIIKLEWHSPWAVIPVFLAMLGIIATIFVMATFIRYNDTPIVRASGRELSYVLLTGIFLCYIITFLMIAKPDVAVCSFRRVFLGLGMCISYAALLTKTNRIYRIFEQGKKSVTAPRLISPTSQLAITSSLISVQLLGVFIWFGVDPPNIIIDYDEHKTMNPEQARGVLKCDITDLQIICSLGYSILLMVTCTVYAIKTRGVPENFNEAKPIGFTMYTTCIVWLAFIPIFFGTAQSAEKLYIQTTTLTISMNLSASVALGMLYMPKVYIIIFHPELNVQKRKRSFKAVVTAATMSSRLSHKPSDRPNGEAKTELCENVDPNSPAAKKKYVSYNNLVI
Sequence of CYP2D6 (P10635 whole entry): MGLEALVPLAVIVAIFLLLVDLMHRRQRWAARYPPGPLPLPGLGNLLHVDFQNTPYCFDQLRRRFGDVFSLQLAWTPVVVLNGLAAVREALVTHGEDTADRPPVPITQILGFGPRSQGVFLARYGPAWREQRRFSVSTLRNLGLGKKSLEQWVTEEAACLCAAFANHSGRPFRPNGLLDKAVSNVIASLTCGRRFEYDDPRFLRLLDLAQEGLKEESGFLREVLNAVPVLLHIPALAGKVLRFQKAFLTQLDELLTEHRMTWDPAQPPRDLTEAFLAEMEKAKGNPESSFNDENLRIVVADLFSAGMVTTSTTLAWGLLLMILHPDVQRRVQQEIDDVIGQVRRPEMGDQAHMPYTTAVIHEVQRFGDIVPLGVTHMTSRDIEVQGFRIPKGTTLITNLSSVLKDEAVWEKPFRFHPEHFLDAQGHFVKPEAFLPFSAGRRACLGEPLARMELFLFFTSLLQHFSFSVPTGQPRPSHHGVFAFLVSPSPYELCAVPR
Sequence of Metabotropic glutamate receptor 3 (Q14832 23-879 limits assumed): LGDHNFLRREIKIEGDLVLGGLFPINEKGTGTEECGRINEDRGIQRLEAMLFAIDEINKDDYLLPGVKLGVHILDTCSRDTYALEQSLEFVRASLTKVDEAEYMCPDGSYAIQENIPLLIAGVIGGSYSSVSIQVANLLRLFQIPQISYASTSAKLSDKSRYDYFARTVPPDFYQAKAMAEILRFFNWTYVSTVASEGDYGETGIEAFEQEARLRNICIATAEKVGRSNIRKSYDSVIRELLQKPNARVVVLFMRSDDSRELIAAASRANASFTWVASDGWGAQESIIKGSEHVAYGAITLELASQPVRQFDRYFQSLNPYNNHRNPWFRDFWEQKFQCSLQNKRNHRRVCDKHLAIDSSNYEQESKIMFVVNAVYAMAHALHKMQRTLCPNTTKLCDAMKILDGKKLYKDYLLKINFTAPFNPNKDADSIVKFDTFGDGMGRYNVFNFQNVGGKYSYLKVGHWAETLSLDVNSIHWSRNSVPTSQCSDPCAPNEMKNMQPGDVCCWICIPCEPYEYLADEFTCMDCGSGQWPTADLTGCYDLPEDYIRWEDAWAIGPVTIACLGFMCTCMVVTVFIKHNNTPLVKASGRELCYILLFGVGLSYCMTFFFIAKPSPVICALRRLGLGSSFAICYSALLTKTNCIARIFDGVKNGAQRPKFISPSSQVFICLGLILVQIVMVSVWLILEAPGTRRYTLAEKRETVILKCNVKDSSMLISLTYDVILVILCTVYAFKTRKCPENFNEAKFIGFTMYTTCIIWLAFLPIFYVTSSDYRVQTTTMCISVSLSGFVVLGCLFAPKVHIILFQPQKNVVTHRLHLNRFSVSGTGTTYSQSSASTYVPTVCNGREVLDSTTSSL
Sequence of CYP3A4 (P08684 whole entry): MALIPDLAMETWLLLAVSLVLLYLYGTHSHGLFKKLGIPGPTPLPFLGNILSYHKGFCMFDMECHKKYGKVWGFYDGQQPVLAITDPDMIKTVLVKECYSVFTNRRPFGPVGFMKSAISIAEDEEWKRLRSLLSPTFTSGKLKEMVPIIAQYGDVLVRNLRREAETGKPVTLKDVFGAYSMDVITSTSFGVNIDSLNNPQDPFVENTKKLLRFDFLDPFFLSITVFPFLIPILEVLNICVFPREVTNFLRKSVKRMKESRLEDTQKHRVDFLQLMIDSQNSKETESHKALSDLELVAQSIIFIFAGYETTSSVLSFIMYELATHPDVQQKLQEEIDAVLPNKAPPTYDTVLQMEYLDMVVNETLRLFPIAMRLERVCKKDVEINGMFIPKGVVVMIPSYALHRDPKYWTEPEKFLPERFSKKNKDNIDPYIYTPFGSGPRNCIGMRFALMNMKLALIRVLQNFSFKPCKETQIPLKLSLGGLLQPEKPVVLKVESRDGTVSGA
Sequence of Metabotropic glutamate receptor 1 (Q13255 whole entry): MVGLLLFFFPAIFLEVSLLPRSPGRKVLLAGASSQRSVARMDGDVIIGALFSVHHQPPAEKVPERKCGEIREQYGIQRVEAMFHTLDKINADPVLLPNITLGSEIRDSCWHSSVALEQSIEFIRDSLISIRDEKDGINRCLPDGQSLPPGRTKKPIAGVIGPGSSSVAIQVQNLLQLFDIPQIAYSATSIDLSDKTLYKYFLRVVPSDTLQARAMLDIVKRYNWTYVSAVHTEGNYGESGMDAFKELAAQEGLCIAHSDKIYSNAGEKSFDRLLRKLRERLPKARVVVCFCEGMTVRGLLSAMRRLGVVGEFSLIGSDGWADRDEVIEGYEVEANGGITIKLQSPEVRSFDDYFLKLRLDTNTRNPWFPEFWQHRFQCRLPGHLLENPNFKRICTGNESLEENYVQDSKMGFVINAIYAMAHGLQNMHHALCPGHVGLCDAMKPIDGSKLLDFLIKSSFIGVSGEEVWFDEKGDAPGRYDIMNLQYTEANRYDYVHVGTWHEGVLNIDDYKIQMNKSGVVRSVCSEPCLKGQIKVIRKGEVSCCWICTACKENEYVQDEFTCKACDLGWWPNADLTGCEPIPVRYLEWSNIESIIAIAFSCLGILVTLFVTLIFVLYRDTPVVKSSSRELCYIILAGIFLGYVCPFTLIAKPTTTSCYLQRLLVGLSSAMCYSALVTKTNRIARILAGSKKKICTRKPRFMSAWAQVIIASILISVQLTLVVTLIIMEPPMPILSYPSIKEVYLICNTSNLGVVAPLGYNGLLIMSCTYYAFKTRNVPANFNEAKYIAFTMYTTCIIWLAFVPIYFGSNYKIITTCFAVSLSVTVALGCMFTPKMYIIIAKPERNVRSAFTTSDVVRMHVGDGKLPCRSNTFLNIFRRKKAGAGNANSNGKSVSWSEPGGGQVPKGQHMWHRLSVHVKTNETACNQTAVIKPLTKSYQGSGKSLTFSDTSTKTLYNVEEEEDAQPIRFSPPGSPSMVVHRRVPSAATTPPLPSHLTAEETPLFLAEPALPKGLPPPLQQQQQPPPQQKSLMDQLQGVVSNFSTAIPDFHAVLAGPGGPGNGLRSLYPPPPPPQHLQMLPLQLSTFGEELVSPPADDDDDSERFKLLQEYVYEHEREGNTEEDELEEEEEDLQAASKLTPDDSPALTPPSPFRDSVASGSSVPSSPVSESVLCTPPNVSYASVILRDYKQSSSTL
Sequence of Metabotropic glutamate receptor 2 (Q14416 19-872 limits assumed): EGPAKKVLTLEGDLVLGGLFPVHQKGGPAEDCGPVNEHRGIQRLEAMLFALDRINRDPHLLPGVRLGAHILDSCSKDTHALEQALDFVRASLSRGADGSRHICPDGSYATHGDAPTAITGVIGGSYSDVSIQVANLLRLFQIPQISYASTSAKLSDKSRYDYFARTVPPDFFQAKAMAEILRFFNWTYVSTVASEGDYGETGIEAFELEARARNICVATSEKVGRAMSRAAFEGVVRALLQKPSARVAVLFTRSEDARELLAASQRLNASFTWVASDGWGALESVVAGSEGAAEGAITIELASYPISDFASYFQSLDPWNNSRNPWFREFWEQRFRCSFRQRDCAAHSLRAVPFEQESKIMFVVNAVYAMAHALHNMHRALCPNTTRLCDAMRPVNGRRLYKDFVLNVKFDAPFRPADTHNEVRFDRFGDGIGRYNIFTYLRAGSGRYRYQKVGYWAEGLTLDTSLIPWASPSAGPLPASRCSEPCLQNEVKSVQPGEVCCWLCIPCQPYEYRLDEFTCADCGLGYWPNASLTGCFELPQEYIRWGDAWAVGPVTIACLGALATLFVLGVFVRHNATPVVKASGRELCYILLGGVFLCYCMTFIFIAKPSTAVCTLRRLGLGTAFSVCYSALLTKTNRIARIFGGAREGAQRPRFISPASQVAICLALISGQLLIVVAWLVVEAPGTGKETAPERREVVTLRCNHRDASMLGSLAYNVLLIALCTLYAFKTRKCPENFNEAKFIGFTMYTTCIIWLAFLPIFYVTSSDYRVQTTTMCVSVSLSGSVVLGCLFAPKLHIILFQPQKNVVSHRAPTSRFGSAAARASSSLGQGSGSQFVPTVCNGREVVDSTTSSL

**Q.** For `N[C@]1(C(=O)O)[C@@H]2[C@@H](C(=O)O)[C@@H]2[C@H](O)[C@H]1OCc1ccc(Cl)c(Cl)c1`, which fraction unbound [1] is on record?
**A.** 0.56

**Q.** And the half-life [2]?
**A.** 4.48 h

**Q.** And the Tmax [3]?
**A.** 0.38 h

**Q.** And the inhibition [4]?
**A.** Active

**Q.** What about the inhibition [5] of the same molecule?
**A.** Active

**Q.** And the EC50 [6]?
**A.** > 25 µM

**Q.** What about the IC50 [7] of the same molecule?
**A.** 10.5 µM

**Q.** What about the EC50 [8] of the same molecule?
**A.** > 25 µM

**Q.** What about the solubility [9] of the same molecule?
**A.** 778 µg/mL (≈ 2070 µM)

**Q.** What about the metabolised at 0.5 h, 4 µM [10] of the same molecule?
**A.** < 20%

**Q.** What about the metabolised at 0.5 h, 4 µM [11] of the same molecule?
**A.** < 20%

**Q.** And the metabolised at 0.5 h, 4 µM [12]?
**A.** < 20%

**Q.** What about the inhibition at 10 µM (CYP3A4) of the same molecule?
**A.** < 5%

**Q.** What about the inhibition at 10 µM (CYP2D6) of the same molecule?
**A.** < 5%

**Q.** And the AUC [13]?
**A.** 1.783 µM·h

**Q.** And the Cmax [14]?
**A.** 0.262 µM

**Q.** What about the F [15] of the same molecule?
**A.** 6%

**Q.** What about the concentration at 0.5 h [16] of the same molecule?
**A.** 16.5 µM

**Q.** And the Activity [17]?
**A.** Dose-dependent effect

**Q.** And the TIME [18]?
**A.** 0.683 h

**Q.** What about the TIME [19] of the same molecule?
**A.** 2.18 h

**Q.** What about the Activity (Rattus norvegicus) of the same molecule?
**A.** Non-Toxic

— ChEMBL document CHEMBL3868610, “Novel bicyclo[3.1.0]hexane analogs as antagonists of metabotropic glutamate 2/3 receptors for the treatment of depression” (Bioorg Med Chem Lett, 2016)
